Source: patent US12331059B2 (priority 2019, dated 2025)

system: MV4-11 cells; experiment: cells; format: cell-based; conditions: Homo sapiens, MV4-11, 48 h

SMILES | IC50 [µM]
Cc1ncsc1-c1ccc(CNC(=O)C2CC(O)CN2C(=O)C(NC(=O)CNC(=O)OCCCC2OC3OC4(C)CCC5C(C)CCC(C2C)C35OO4)C(C)(C)C)cc1 (stereo not drawn) [CL-4] | 0.91
Cc1ncsc1-c1ccc(CNC(=O)C2CC(O)CN2C(=O)C(NC(=O)CCCCNC(=O)OCCC2OC3OC4(C)CCC5C(C)CCC(C2C)C35OO4)C(C)(C)C)cc1 (stereo not drawn) [CL-22] | 0.2
Cc1ncsc1-c1ccc(CNC(=O)C2CC(O)CN2C(=O)C(NC(=O)CCNC(=O)CCC(=O)NN2C(=O)C(C)C3CCC(C)C4CCC5(C)OOC43C2O5)C(C)(C)C)cc1 (stereo not drawn) [CL-40] | 6.08
Cc1ncsc1-c1ccc(CNC(=O)C2CC(O)CN2C(=O)C(NC(=O)CCOCCOCCNC(=O)C23CC4CC(C2)C2(OOC5(CCCCC5)O2)C(C4)C3)C(C)(C)C)cc1 (stereo not drawn) [CL-26] | 8.1
Cc1ncsc1-c1ccc(CNC(=O)C2CC(O)CN2C(=O)C(NC(=O)CCOCCOCCOCCNC(=O)OCCC2OC3OC4(C)CCC5C(C)CCC(C2C)C35OO4)C(C)(C)C)cc1 (stereo not drawn) [CL-19] | 0.5
Cc1ncsc1-c1ccc(CNC(=O)C2CC(O)CN2C(=O)C(NC(=O)CCOCCOCCNC(=O)OCCC2OC3OC4(C)CCC5C(C)CCC(C2C)C35OO4)C(C)(C)C)cc1 (stereo not drawn) [CL-18] | 2.66
Cc1ncsc1-c1ccc(CNC(=O)C2CC(O)CN2C(=O)C(NC(=O)CCNC(=O)OCCC2OC3OC4(C)CCC5C(C)CCC(C2C)C35OO4)C(C)(C)C)cc1 (stereo not drawn) [CL-24] | 0.5
Cc1ncsc1-c1ccc(CNC(=O)C2CC(O)CN2C(=O)C(NC(=O)CCOCCOCCNC(=O)CC2OC3OC4(C)CCC5C(C)CCC(C2C)C35OO4)C(C)(C)C)cc1 (stereo not drawn) [CL-10] | 44.5
Cc1ncsc1-c1ccc(CNC(=O)C2CC(O)CN2C(=O)C(NC(=O)CCCNC(=O)OCCC2OC3OC4(C)CCC5C(C)CCC(C2C)C35OO4)C(C)(C)C)cc1 (stereo not drawn) [CL-21] | 0.84
Cc1ncsc1-c1ccc(CNC(=O)C2CC(O)CN2C(=O)C(NC(=O)CCOCCOCCNC(=O)OCCCC2OC3OC4(C)CCC5C(C)CCC(C2C)C35OO4)C(C)(C)C)cc1 (stereo not drawn) [CL-2] | 0.59
Cc1ncsc1-c1ccc(CNC(=O)C2CC(O)CN2C(=O)C(NC(=O)CCCCNC(=O)C23CC4CC(C2)C2(OOC5(CCCCC5)O2)C(C4)C3)C(C)(C)C)cc1 (stereo not drawn) [CL-30] | 8.31
Cc1ncsc1-c1ccc(CNC(=O)C2CC(O)CN2C(=O)C(NC(=O)CCCNC(=O)CC2OC3OC4(C)CCC5C(C)CCC(C2C)C35OO4)C(C)(C)C)cc1 (stereo not drawn) [CL-13] | 3.1
Cc1ncsc1-c1ccc(CNC(=O)C2CC(O)CN2C(=O)C(NC(=O)Cc2ccc(CNC(=O)CC3OC4OC5(C)CCC6C(C)CCC(C3C)C46OO5)cc2)C(C)(C)C)cc1 (stereo not drawn) [CL-15] | 0.52
Cc1ncsc1-c1ccc(CNC(=O)C2CC(O)CN2C(=O)C(NC(=O)CNC(=O)C23CC4CC(C2)C2(OOC5(CCCCC5)O2)C(C4)C3)C(C)(C)C)cc1 (stereo not drawn) [CL-28] | 9.72
Cc1ncsc1-c1ccc(CNC(=O)C2CC(O)CN2C(=O)C(NC(=O)CCOCCNC(=O)OCCC2OC3OC4(C)CCC5C(C)CCC(C2C)C35OO4)C(C)(C)C)cc1 (stereo not drawn) [CL-17] | 0.3
Cc1ncsc1-c1ccc(CNC(=O)C2CC(O)CN2C(=O)C(NC(=O)Cc2ccc(CNC(=O)C34CC5CC(C3)C3(OOC6(CCCCC6)O3)C(C5)C4)cc2)C(C)(C)C)cc1 (stereo not drawn) [CL-31] | 3.04
Cc1ncsc1-c1ccc(CNC(=O)C2CC(O)CN2C(=O)C(NC(=O)CCOCCNC(=O)CC2OC3OC4(C)CCC5C(C)CCC(C2C)C35OO4)C(C)(C)C)cc1 (stereo not drawn) [CL-9] | 4.67
Cc1ncsc1-c1ccc(CNC(=O)C2CC(O)CN2C(=O)C(NC(=O)CCCNC(=O)OCCCC2OC3OC4(C)CCC5C(C)CCC(C2C)C35OO4)C(C)(C)C)cc1 (stereo not drawn) [CL-5] | 0.55
Cc1ncsc1-c1ccc(CNC(=O)C2CC(O)CN2C(=O)C(NC(=O)Cc2ccc(CNC(=O)OCCCC3OC4OC5(C)CCC6C(C)CCC(C3C)C46OO5)cc2)C(C)(C)C)cc1 (stereo not drawn) [CL-7] | 0.46
Cc1ncsc1-c1ccc(CNC(=O)C2CC(O)CN2C(=O)C(NC(=O)CNC(=O)CC2OC3OC4(C)CCC5C(C)CCC(C2C)C35OO4)C(C)(C)C)cc1 (stereo not drawn) [CL-12] | 1.1
Cc1ncsc1-c1ccc(CNC(=O)C2CC(O)CN2C(=O)C(NC(=O)CCNC(=O)C23CC4CC(C2)C2(OOC5(CCCCC5)O2)C(C4)C3)C(C)(C)C)cc1 (stereo not drawn) [CL-32] | 3.38
Cc1ncsc1-c1ccc(CNC(=O)C2CC(O)CN2C(=O)C(NC(=O)CCOCCOCCOCCNC(=O)OCCCC2OC3OC4(C)CCC5C(C)CCC(C2C)C35OO4)C(C)(C)C)cc1 (stereo not drawn) [CL-3] | 0.52
Cc1ncsc1-c1ccc(CNC(=O)C2CC(O)CN2C(=O)C(NC(=O)CCOCCNC(=O)C23CC4CC(C2)C2(OOC5(CCCCC5)O2)C(C4)C3)C(C)(C)C)cc1 (stereo not drawn) [CL-25] | 5.5
Cc1ncsc1-c1ccc(CNC(=O)C2CC(O)CN2C(=O)C(NC(=O)CCNC(=O)OCCCC2OC3OC4(C)CCC5C(C)CCC(C2C)C35OO4)C(C)(C)C)cc1 (stereo not drawn) [CL-8] | 0.24
Cc1ncsc1-c1ccc(CNC(=O)C2CC(O)CN2C(=O)C(NC(=O)CCOCCOCCOCCNC(=O)C23CC4CC(C2)C2(OOC5(CCCCC5)O2)C(C4)C3)C(C)(C)C)cc1 (stereo not drawn) [CL-27] | 12
Cc1ncsc1-c1ccc(CNC(=O)C2CC(O)CN2C(=O)C(NC(=O)Cc2ccc(CNC(=O)OCCC3OC4OC5(C)CCC6C(C)CCC(C3C)C46OO5)cc2)C(C)(C)C)cc1 (stereo not drawn) [CL-23] | 6.2
Cc1ncsc1-c1ccc(CNC(=O)C2CC(O)CN2C(=O)C(NC(=O)CCOCCOCCOCCNC(=O)CC2OC3OC4(C)CCC5C(C)CCC(C2C)C35OO4)C(C)(C)C)cc1 (stereo not drawn) [CL-11] | 29.6
Cc1ncsc1-c1ccc(CNC(=O)C2CC(O)CN2C(=O)C(NC(=O)CCCCNC(=O)OCCCC2OC3OC4(C)CCC5C(C)CCC(C2C)C35OO4)C(C)(C)C)cc1 (stereo not drawn) [CL-6] | 5.3
Cc1ncsc1-c1ccc(CNC(=O)C2CC(O)CN2C(=O)C(NC(=O)CCCNC(=O)C23CC4CC(C2)C2(OOC5(CCCCC5)O2)C(C4)C3)C(C)(C)C)cc1 (stereo not drawn) [CL-29] | 3.5

system: U937 leukemia cells; experiment: not given; set-up: species or system NSG mice; conditions: mouse

SMILES | inhibition towards the growth of U937 leukemia cells in vivo
Cc1ncsc1-c1ccc(CNC(=O)C2CC(O)CN2C(=O)C(NC(=O)CCNC(=O)OCCCC2OC3OC4(C)CCC5C(C)CCC(C2C)C35OO4)C(C)(C)C)cc1 (stereo not drawn) [CL-8] | strong inhibition

same assay, conditions: mouse, in vivo

SMILES | The proportion of human leukemia cells in bone marrow of mice | The proportion of human leukemia cells in peripheral blood of mice | The proportion of human leukemia cells in spleen of mice
C[C@H]1[C@H](OC(=O)CCC(=O)O)O[C@@H]2O[C@@]3(C)CC[C@H]4[C@H](C)CC[C@@H]1[C@@]24OO3 [artesunate, reference compound] | 91.28 ± 2.20 | 21.92 ± 2.58 | 49.77 ± 9.28
Cc1ncsc1-c1ccc(CNC(=O)C2CC(O)CN2C(=O)C(NC(=O)CCNC(=O)OCCCC2OC3OC4(C)CCC5C(C)CCC(C2C)C35OO4)C(C)(C)C)cc1 (stereo not drawn) [CL-8] | 0.38 ± 0.08 | 0.96 ± 0.16 | 11.39 ± 21.3
